Literature values, collected in patent US20220054467A1, “TREATMENT OF PSORIASIS WITH TOPICAL TAPINAROF-TAZAROTENE COMBINATION COMPOSITIONS” (Sol-Gel Technologies Ltd., priority 2019, published 2022).
Like-named read-outs stand apart in the source and are kept apart here.

Columns and labels:
[1] = as a single drug; placebo 20.2%
[2] = system: interleukin-6 and interleukin-17A; details: mouse models
[3] = system: interleukin-6 and interleukin-17A; details: in vitro human skin
[4] = 1% tapinarof arm vs. the 0.5% arm or vehicle

Question: With `C=C1/C(=C\C=C2/CCC[C@]3(C)[C@@H]([C@H](C)/C=C/[C@@H](O)C4CC4)CC[C@@H]23)C[C@@H](O)C[C@@H]1O` [calcipotriene] as the molecule, how does the adverse effects [1] read?
Answer: The adverse effects was 19.5%.

Question: For `CC(C)c1c(O)cc(/C=C/c2ccccc2)cc1O` [Tapinarof, 3,5-dihydroxy-4-isopropyl-trans-stilbene], which efficacy (plaque psoriasis; [4]) is on record?
Answer: Its efficacy is “higher efficacy”.

Question: And the onset of action (plaque psoriasis; [4])?
Answer: Its onset of action is “quicker onset of action”.

Question: And the “most frequent adverse events” value (plaque psoriasis; topical cream, clinical studies)?
Answer: Its value is “folliculitis and contact dermatitis”.

Question: And the adverse effects [1]?
Answer: The adverse effects was 44.5%.

Question: What about the “effect on proinflammatory mediators, including interleukin-6 and interleukin-17A” value [2] of the same molecule?
Answer: Its value is “inhibit specific proinflammatory mediators”.

Question: What about the “effect on skin barrier function” value [2] of the same molecule?
Answer: Its value is “enhance skin barrier function”.

Question: What about the “effect on proinflammatory mediators, including interleukin-6 and interleukin-17A” value [3] of the same molecule?
Answer: Its value is “inhibit specific proinflammatory mediators”.

Question: What about the “effect on skin barrier function” value [3] of the same molecule?
Answer: Its value is “enhance skin barrier function”.
